Some results are limits rather than exact numbers.

To fix the notation:
B1: IL-12 β-chain (p40), carboxyterminally hexahistidine-tagged (HIBERNIA.1 cells, pIND(SP1)-p40H) (ligand)
chain: IWELKKDVYVVELDWYPDAPGEMVVLTCDTPEEDGITWTLDQSSEVLGSGKTLTIQVKEFGDAGQYTCHKGGEVLSHSLLLLHKKEDGIWSTDILKDQKEPKNKTFLRCEAKNYSGRFTCWWLTTISTDLTFSVKSSRGSSDPQGVTCGAATLSAERVRGDNKEYEYSVECQEDSACPAAEESLPIEVMVDAVHKLKYENYTSSFFIRDIIKPDPPKNLQLKPLKNSRQVEVSWEYPDTWSTPHSYFSLTFCVQVQGKSKREKKDRVFTDKTSATVICRKNASISVRAQDRYYSSSWSEWASVPCSHHHHHH
notes: mature; Secreted by HIBERNIA.1 cells as a monomer (about 40 kD) and as a disulfide-bonded homodimer (about 80 kD); also called β chain homodimer (80 kD form)

Data set [1] deals with IL-12 α and β monomer forms. In words: Inhibitor assay: secretion of IL-12 α and β monomer forms. The settings on record: 16 hr treatment.
A further data set has as its system EcR293 cells. In words: MTT cytotoxicity test. The format is cell-based, human. As for the experimental part: The mitochondrial ...MTT test is widely use as a cytotoxicity test. This test is principally based on the propensity of mitochondrial dehydrogenases to cleave the tetrazolium ring of. The viability of cells is proportional to the activity of mitochondrial dehydrogenases. Cleavage of the tetrazolium ring results in the formation of purple formazan crystals. We used the MTT assay to quantify cytotoxicity of celecoxib on EcR293 cells. The test was performed in 96-well plates in which 10^5 cells per well were plated the day before application of the MTT test. Following addition of celecoxib to the culture medium, cells were induced by ponasterone A, as explained before. After 16 hours of induction, the MTT reagent (10 μl of 100 mg/ml stock solution) was added to the cells. Two hours later, the medium was removed, and the cells were dissolved in DMSO. DMSO solubilizes formazan crystals. Absorbance was measured at 550 nm using a 96-well plate spectrophotometer.

A further data set concerns mRNA of IL-12. In words: Effect on IL-12 mRNA. It is filed as cell-based, human.
Data set [2] concerns the molecule itself. Put plainly: non-reducing SDS-PAGE and anti-β-chain immunoblot of secreted fraction. (In general: In western blotting, separated proteins are transferred to a membrane and probed.)
Data set [3] concerns the molecule itself. In words: non-reducing SDS-PAGE of medium of recombinant cell lines secreting the α chain.
Data set [4] addresses B1. Put plainly: co-expression; non-reducing and reducing SDS-PAGE with anti-α-chain and anti-β-chain immunoblots.

As to `CNc1ccc2oc(C[C@H]3O[C@@]4(CC[C@H]3C)O[C@H]([C@H](C)C(=O)c3ccc[nH]3)[C@H](C)C[C@H]4C)nc2c1C(=O)O` [A23187], the “secretion of IL-12 α and β monomer forms” value in data set [1] is given as “suppressed by neither”. Besides, the “concentration at which toxicity was observed (MTT test)” value (shortened to “concentration”) in the data set with EcR293 cells (16 hr test period) was above 10 µM. For the molecule `Cc1ccc(-c2cc(C(F)(F)F)nn2-c2ccc(S(N)(=O)=O)cc2)cc1` [Celecoxib, 4-[5-(4-methylpheny)-3-(trifluoromethyl)-IH-pyrazol-I-yl]benzenesulfonamide], the “concentration” value in the data set on EcR293 cells (human, 16 h) is at least 100 µM. In addition, in the data set on mRNA of IL-12, the “effect on mRNA of IL-12” value is reported as “no effect”. On to `C/C=C(/C)C(=O)O[C@H]1C(C)=C2[C@H]([C@@H]1OC(=O)CCCCCCC)[C@@](C)(OC(C)=O)C[C@H](OC(=O)CCC)[C@@]1(O)[C@H]2OC(=O)[C@@]1(C)O` [thapsigargin], for which the “secretion of IL-12 α and β monomer forms” value in data set [1] is “suppressed by neither”. For the same molecule, the “concentration” value with EcR293 cells (human, 16 h) lay in the range of 5 to 10 µM. Consider B1, for which, in data set [2], the binding result was “binds”.

B2: IL-12 α-chain (p35), carboxyterminal hexahistidine-tagged (ligand)
chain: RNLPVATPDPGMFPCLHHSQNLLRAVSNMLQKARQTLEFYPCTSEEIDHEDITKDKTSTVEACLPLELTKNESCLNSRETSFITNGSCLASRKTSFMMALCLSSIYEDLKMYQVEFKTMNAKLLMDPKRQIFLDQNMLAVIDELMQALNFNSETVPQKSSLEEPDFYKTKIKLCILLHAFRIRAVTIDRVMSYLNASHHHHHH
notes: mature; Expressed in EcR293 or HIBERNIA.1 cells from pIND-p35H or pIND(SP1)-p35H; N-glycosylated; also called p35H; His-tagged α-chain
For B2, the binding result is on record as “no binding” in data set [3] and “binds” in data set [4].
